Laboratory results taken from the Kinase Knowledgebase extract (Sharma et al. 2016).

Biological target: ROCK2 (human) (UniProt O75116)
Test: Inhibition of ROCK2 Kinase Activity

Chain of ROCK2 (human) (O75116 whole entry, looked up): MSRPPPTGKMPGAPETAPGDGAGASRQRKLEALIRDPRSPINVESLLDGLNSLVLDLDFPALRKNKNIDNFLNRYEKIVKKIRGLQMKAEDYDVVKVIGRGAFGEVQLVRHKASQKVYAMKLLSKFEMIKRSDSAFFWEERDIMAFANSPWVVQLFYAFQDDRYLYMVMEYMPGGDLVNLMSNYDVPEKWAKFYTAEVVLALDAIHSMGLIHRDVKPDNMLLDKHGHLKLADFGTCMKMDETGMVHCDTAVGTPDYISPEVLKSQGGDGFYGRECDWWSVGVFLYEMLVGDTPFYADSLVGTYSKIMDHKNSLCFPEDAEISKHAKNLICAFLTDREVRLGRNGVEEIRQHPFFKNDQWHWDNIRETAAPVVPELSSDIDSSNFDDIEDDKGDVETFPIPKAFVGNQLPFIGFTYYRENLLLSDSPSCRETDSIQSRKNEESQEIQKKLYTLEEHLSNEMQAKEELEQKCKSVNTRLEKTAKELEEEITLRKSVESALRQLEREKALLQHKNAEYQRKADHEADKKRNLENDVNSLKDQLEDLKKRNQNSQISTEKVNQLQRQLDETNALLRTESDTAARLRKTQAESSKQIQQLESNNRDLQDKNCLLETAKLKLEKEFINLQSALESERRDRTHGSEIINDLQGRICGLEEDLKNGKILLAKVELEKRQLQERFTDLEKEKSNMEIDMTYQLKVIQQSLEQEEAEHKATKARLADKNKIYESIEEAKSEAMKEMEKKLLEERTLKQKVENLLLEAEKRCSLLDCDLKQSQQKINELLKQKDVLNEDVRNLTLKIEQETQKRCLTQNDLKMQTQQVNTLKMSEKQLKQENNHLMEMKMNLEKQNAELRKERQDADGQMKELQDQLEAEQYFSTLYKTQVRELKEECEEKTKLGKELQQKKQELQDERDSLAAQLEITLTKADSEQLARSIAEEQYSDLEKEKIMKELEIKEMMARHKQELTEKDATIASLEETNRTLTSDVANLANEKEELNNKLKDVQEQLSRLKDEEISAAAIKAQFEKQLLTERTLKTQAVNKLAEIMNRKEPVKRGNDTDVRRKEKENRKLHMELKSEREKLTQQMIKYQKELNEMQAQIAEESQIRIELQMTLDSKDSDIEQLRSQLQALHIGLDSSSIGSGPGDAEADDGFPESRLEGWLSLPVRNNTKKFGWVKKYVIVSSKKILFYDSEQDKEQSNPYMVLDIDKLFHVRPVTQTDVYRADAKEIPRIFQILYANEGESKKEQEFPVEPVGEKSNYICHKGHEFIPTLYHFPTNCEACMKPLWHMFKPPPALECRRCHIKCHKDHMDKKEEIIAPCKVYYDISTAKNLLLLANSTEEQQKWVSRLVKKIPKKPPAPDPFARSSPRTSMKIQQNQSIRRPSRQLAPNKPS

| IC50 | SMILES |
| --- | --- |
| 43 nM | N#Cc1ccc2c(c1)CC(c1nc3ccc(-c4ccnc(N)n4)cc3[nH]1)CO2 (stereo unspecified) |
| 1.2 nM | Nc1nccc(-c2ccc3nc(C4COc5ccc(C(=O)NC6CC6)cc5C4)[nH]c3c2)n1 (stereo unspecified) |
| 1.2 nM | Nc1nccc(-c2ccc3nc(C4COc5ccc(C(=O)NCCN6CCOCC6)cc5C4)[nH]c3c2)n1 (stereo unspecified) |
| < 1 nM | Nc1nccc(-c2ccc3nc(C4COc5ccc(C(=O)NCc6ccccc6)cc5C4)[nH]c3c2)n1 (stereo unspecified) |
| 4 nM | NC(=O)c1ccc2c(c1)CC(c1nc3ccc(-c4ccnc(N)n4)cc3[nH]1)CO2 (stereo unspecified) |
| 0.8 nM | Nc1nccc(-c2ccc3nc(C4COc5ccc(CC(=O)NC6CC6)cc5C4)[nH]c3c2)n1 (stereo unspecified) |
| 316 nM | CCCOc1ccc2c(c1)CC(c1nc3ccc(-c4ccnc(N)n4)cc3[nH]1)CO2 (stereo unspecified) |
| 4.7 nM | Nc1nccc(-c2ccc3nc(C4COc5ccc(F)cc5C4)[nH]c3c2)n1 (stereo unspecified) |
| 2.7 nM | CC(=O)c1ccc2c(c1)CC(c1nc3ccc(-c4ccnc(N)n4)cc3[nH]1)CO2 (stereo unspecified) |
| 40 nM | CN(C)S(=O)(=O)c1ccc2c(c1)CC(c1nc3ccc(-c4ccnc(N)n4)cc3[nH]1)CO2 (stereo unspecified) |
| 10 nM | Nc1nccc(-c2ccc3nc(C4COc5ccc(Br)cc5C4)[nH]c3c2)n1 (stereo unspecified) |
